The values that follow come from patent publication US20220306623A1, “PYRIDYL OR PYRIMIDYL MTOR KINASE INHIBITORS” (GLAXOSMITHKLINE INTELLECTUAL PROPERTY DEVELOPMENT LIMITED, priority 2019, published 2022).

Like-named read-outs stand apart in the source and are kept apart here.

The test deals with type I collagen deposition in primary lung fibroblasts derived from human tissue. In words: High throughput type I collagen deposition (scar-in-a-jar) high content screening assay. Format: cell-based. The settings on record: Primary lung fibroblast, 72 h, human pulmonary fibroblasts, 384-well, TGF-β 1 ng/ml 72 h. The procedure: Highthroughput, cellular type I collagen deposition was measured by adapting a published method; scar-in-a-jar (Chen et al., 2009) to primary lung fibroblasts derived from human tissue and combining with high content analysis to permit fluorescent quantification of collagen deposited in the extracellular matrix (ECM). The human biological samples were sourced ethically and their research use was in accordance with the terms of the informed consents.
Test compounds were dissolved in 100% DMSO to give 10 mM (stocks) and further diluted to give half log dilutions to generate an 11 point concentration response curve. 1 ul was transferred to 384-well plates (Greiner Group, Kremsmunster, Austria, Catalogue No Greine 781280r).
Human pulmonary fibroblasts were maintained in DMEM media (Gibco, Catalogue No 21969) supplemented with 4 mM L-glutamine (Gibco Catalogue No 25030-024) and 10% heat inactivated FBS (Gibco, Catalogue No 10099-141) at 37° C. in 10% CO2. Cells were harvested and resuspended at 4×10^6 cells/ml in a T175 cell culture flask (BD Falcom, Catalogue No: 353112) containing 50 mL of culture media. After 4 days 37° C. in 10% CO2, cells were harvested and seeded at 4000 cells per well ([…]) into 384-well plates (BD Falcon, Catalogue No 353962Greiner) in assay media (0.4% heat inactivated FBS, 4 mM L-glutamine). Plates were sealed with breathable seals (Sigma, Catalogue No. BEM-1). Assay plates were incubated for 72 h at 37° C. in 10% CO2.
Assay media was supplemented with 112.5 mg/ml Ficoll 70 (Sigma, Catalogue No F2878), 75 mg/ml Ficoll 400 (Sigma, Catalogue No F4375) and 50 µg/ml ascorbic acid (Sigma, Catalogue No A8960). 30 μL assay media were added to 1 l compound ([…] compound concentration in 1% DMSO). Diluted compounds (10 μL) were transferred to plates containing cells and incubated for 3 h at 37° C. in 10% CO2. Transforming growth factor (TGF)-β (R&D systems, Catalogue No 100-B/CF) was reconstituted to give 10 µg/mL (stock) and further diluted in assay media containing Ficoll and ascorbic acid (1 in 3333). TGF-β was added to cell plates (1 ng/ml final) and cells incubated for 72 h at 37° C. in 10% CO2.
Media was aspirated from cells and 30 µL/well 100% ice-cold methanol added and incubated at RT for 5 min to fix cells. Methanol was aspirated and cells washed with PBS (3×). To block and permeabilise, cells were incubated with PBS containing 1% BSA and 0.1% Triton X 100 for 20 min, followed by PBS wash (3×). Cells were incubated with mouse anti human type I collagen monoclonal antibody (Sigma, Catalogue No C2456) diluted 1:1000 in PBS for 24 h at 4° C. Cells were washed with PBS containing 0.1% Tween-20 (3×) and incubated with secondary alexa fluor 488 goat-anti-mouse antibody (Invitrogen, Catalogue No A11001, 1 in 500 in PBS) and Hoechst 33342 (Sigma, Catalogue No H21492), 1 in 1000 in PBS) for 1 h at RT, prior to washing with PBS containing 0.1% Tween (×4).
Type I collagen immunoreactivity was detected using the INCell 2000 Analyzer (GE Healthcare, INcell 2000) set to excitation and emission wavelengths for DAPI and FITC with laser focus and exposure adjusted to appropriate levels. Images were imported and analysed using Columbus software (Perkin Elmer) and computational algorithms to quantify “total collagen area” and “cell count”.
Data analysis was performed by determining 0/inhibition values for test compounds relative to the minimum (media only) and maximum responses (TGF-βstimulation) with non-linear regression analysis to determine IC50 values for test compounds.

The mark [1] stands for this setting: selected compounds, read-out: Scar in a jar (mean pIC50 values when tested in the scar-in-a-jar assay) (converted).
Where [2] appears, read: total collagen area, read-out: mean pIC50, high throughput type I collagen deposition (scar-in-a-jar) (converted).

Regarding `CC[C@H]1COCCN1c1cc(CS(C)(=O)=O)nc(-c2ccc3[nH]c(CNC)cc3n2)n1` [Example 1, [(5-{4-[(3S)-3-ethylmorpholin-4-yl]-6-(methanesulfonylmethyl)pyrimidin-2-yl}-1H-pyrrolo[3,2-b]pyridin-2-yl)methyl](methyl)amine], the IC50 was 251 nM under setting [1] and 20 to 3160 nM under setting [2].

For `CC[C@H]1COCCN1c1cc(CS(C)(=O)=O)nc(-c2ccc3[nH]c(CO)cc3n2)n1` [Example 2, (S)-(5-(4-(3-ethylmorpholino)-6-((methylsulfonyl)methyl)pyrimidin-2-yl)-1H-pyrrolo[3,2-b]pyridin-2-yl)methanol], the IC50 under setting [2] was 20 to 3160 nM.

In the case of `CC[C@H]1COCCN1c1cc(C2(S(C)(=O)=O)CCOCC2)nc(-c2ccc3[nH]c(CO)cc3n2)n1` [Example 4, (5-{4-[(3S)-3-ethylmorpholin-4-yl]-6-(4-methanesulfonyloxan-4-yl)pyrimidin-2-yl}-1H-pyrrolo[3,2-b]pyridin-2-yl)methanol], the IC50 under setting [2] was 20 to 3160 nM.

Take `CC[C@H]1COCCN1c1cc(CS(N)(=O)=O)nc(-c2ccc3[nH]c(CNC)cc3n2)n1` [Example 6, {6-[(3S)-3-ethylmorpholin-4-yl]-2-{2-[(methylamino)methyl]-1H-pyrrolo[3,2-b]pyridin-5-yl}pyrimidin-4-yl}methanesulfonamide]: the IC50 under setting [2] was 20 to 3160 nM.

Turning to `CNCc1cc2nc(-c3cc(CS(C)(=O)=O)cc(N4CCO[C@H](C)[C@H]4C)n3)ccc2[nH]1` [Example 8, 1-(5-(6-((2R,3R)-2,3-dimethylmorpholino)-4-((methylsulfonyl)methyl)pyridin-2-yl)-1Hpyrrolo[3,2-b]pyridin-2-yl)-Nmethylmethanamine], under setting [2], the IC50 was 20 to 3160 nM.

Take `CC[C@H]1COCCN1c1cc(CS(=O)(=O)N(C)C)nc(-c2ccc3[nH]c(CO)cc3n2)n1` [Example 9, 1-{6-[(3S)-3-ethylmorpholin-4-yl]-2-[2-(hydroxymethyl)-1H-pyrrolo[3,2-b]pyridin-5-yl]pyrimidin-4-yl}-N,N-dimethylmethanesulfonamide]: the IC50 under setting [2] was 20 to 3160 nM.

Turning to `CC[C@H]1COCCN1c1cc(CS(=O)(=O)NC)nc(-c2ccc3[nH]c(CO)cc3n2)n1` [Example 10, 1-{6-[(3S)-3-ethylmorpholin-4-yl]-2-[2-(hydroxymethyl)-1H-pyrrolo[3,2-b]pyridin-5-yl]pyrimidin-4-yl}-N-methylmethanesulfonamide], the IC50 under setting [2] is 20 to 3160 nM.

Turning to `CC[C@H]1COCCN1c1cc(C2(S(C)(=O)=O)CCOCC2)nc(-c2ccc3[nH]c(C)cc3n2)n1` [Example 13, (3S)-3-ethyl-4-[6-(4-methanesulfonyloxan-4-yl)-2-{2-methyl-1H-pyrrolo[3,2-b]pyridin-5-yl}pyrimidin-4-yl]morpholine], under setting [2], the IC50 is 20 to 3160 nM.

Consider `CC[C@H]1COCC(=O)N1c1cc(CS(C)(=O)=O)nc(-c2ccc3[nH]c(C)cc3n2)n1` [Example 14, (5S)-5-ethyl-4-[6-(methanesulfonylmethyl)-2-{2-methyl-1H-pyrrolo[3,2-b]pyridin-5-yl}pyrimidin-4-yl]morpholin-3-one], for which the IC50 under setting [1] was 25.1 nM and the IC50 under setting [2] is 20 to 3160 nM.

As to `CCc1cc2nc(-c3nc(CS(C)(=O)=O)cc(N4C(=O)COC[C@@H]4CC)n3)ccc2[nH]1` [Example 15, (5S)-5-ethyl-4-(2-{2-ethyl-1H-pyrrolo[3,2-b]pyridin-5-yl}-6-(methanesulfonylmethyl)pyrimidin-4-yl)morpholin-3-one], the IC50 under setting [1] is 158 nM and the IC50 under setting [2] is 20 to 3160 nM.

Take `CC[C@H]1COCCN1c1cc(CS(=O)(=O)N(C)C)nc(-c2ccc3[nH]c(CNC)cc3n2)n1` [Example 16, 1-{6-[(3S)-3-ethylmorpholin-4-yl]-2-{2-[(methylamino)methyl]-1H-pyrrolo[3,2-b]pyridin-5-yl}pyrimidin-4-yl}-N,N-dimethylmethanesulfonamide]: the IC50 was 100 nM under setting [1] and 20 to 3160 nM under setting [2].

As to `CC[C@H]1COCCN1c1cc(C2(S(C)(=O)=O)CCNCC2)cc(-c2ccc3[nH]c(C)cc3n2)n1` [Example 18, (S)-3-ethyl-4-(6-(2-methyl-1H-pyrrolo[3,2-b]pyridin-5-yl)-4-(4-(methylsulfonyl)piperidin-4-yl)pyridin-2-yl)morpholine], the IC50 was 158 nM under setting [1] and 20 to 316 nM under setting [2].

Consider `CC[C@H]1COCCN1c1cc(CS(N)(=O)=O)cc(-c2ccc3[nH]c(C)cc3n2)n1` [Example 23, (S)-(2-(3-ethylmorpholino)-6-(2-methyl-1H-pyrrolo[3,2-b]pyridin-5-yl)pyridin-4-yl)methanesulfonamide], for which the IC50 under setting [2] is 20 to 3160 nM.

Consider `CC[C@H]1COCC(=O)N1c1cc(CS(C)(=O)=O)cc(-c2ccc3[nH]c(C)cc3n2)n1` [Example 24, (S)-5-ethyl-4-(6-(2-methyl-1H-pyrrolo[3,2-b]pyridin-5-yl)-4-((methylsulfonyl)methyl)pyridin-2-yl)morpholin-3-one], for which the IC50 reads like this: under setting [1], 126 nM; under setting [2], 20 to 3160 nM.

For `CC[C@H]1COCC(=O)N1c1cc(C2(S(C)(=O)=O)CCOCC2)cc(-c2ccc3[nH]c(C)cc3n2)n1` [Example 25, (S)-5-ethyl-4-(6-(2-methyl-1H-pyrrolo[3,2-b]pyridin-5-yl)-4-(4-(methylsulfonyl)tetrahydro-2H-pyran-4-yl)pyridin-2-yl)morpholin-3-one], under setting [2], the IC50 is 20 to 3160 nM.

As to `CC[C@H]1COCC(=O)N1c1cc(C2(S(C)(=O)=O)CCOCC2)cc(-c2ccc3[nH]c(CO)cc3n2)n1` [Example 26], under setting [2], the IC50 is 20 to 3160 nM.

For the molecule `CC[C@H]1COCC(=O)N1c1cc(CS(C)(=O)=O)cc(-c2ccc3[nH]c(CO)cc3n2)n1` [Example 27], the IC50 under setting [2] was 20 to 3160 nM.
